Patent publication US8883821B2, “Substituted pyrazolo[3,4-b]pyridines as medicaments” (Pierre Fabre Medicament, priority 2011, dated 2014)

Test system: human anaplastic large-cell lymphoma (ALCL) tumor model
Assay: Antitumor activity in vivo, ALCL tumors grafted subcutaneously in mice, oral daily dosing
Conditions: mice with subcutaneous ALCL tumors, daily schedule, animals weighed
Procedure: Pharmacological Activity In Vivo
The compounds were administered orally at various doses on a daily schedule to mice with ALCL tumors grafted subcutaneously. Tumor size was measured regularly during the study and the animals were weighed several times per week in order to identify any adverse effects. A compound is declared active if it induces inhibition of ALCL tumor growth by at least 58%.

## CN1CCN(c2ccc(C(=O)Nc3n[nH]c4ncc(Sc5cc(F)cc(F)c5)cc34)c(NC3CCOCC3)c2)CC1 [Example 30, N-(5-(3,5-difluorophenylthio)-1-H-pyrazolo[3,4-b]pyridine-3-yl)-4-(4-methylpiperazine-1-yl)-2-(tetrahydro-2H-pyran-4-ylamino)benzamide]
  adverse effects / tolerance in vivo: no adverse effects

## CN1CCN(c2ccc(C(=O)Nc3n[nH]c4ncc(Cc5cc(F)cc(F)c5)cc34)c(NC3CCOCC3)c2)CC1 [Example 30-9, N-(5-(3,5-difluorobenzyl)-1H-pyrazolo[3,4-b]pyridin-3-yl)-4-(4-methylpiperazin-1-yl)-2-(tetrahydro-2H-pyran-4-ylamino)benzamide]
  adverse effects / tolerance in vivo: no adverse effects
